Toxic doses and inconclusive results are not listed. Cut-off read from the data, not from the text of the source: active = T/C of 150% or more; inactive = T/C below 125%.
Test system: L1210 leukemia ip in BDF1 mice, survival T/C
Experiment: NCI In Vivo Anticancer Drug Screen. Data for tumor model L1210 Leukemia (intraperitoneal) in B6D2F1 (BDF1) mice
Settings: endpoint: mean survival time, higher = longer survival
Procedure, shortened: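 Tumor was transplanted into mice, which were then dosed with test compound or vehicle alone. Survival was recorded for each group, and the treated figure was expressed relative to the control figure.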

[1] = dose: 100.0 mg/kg/injection, schedule: Q04DX003 (ip), vehicle: saline with Tween-80
[2] = dose: 200.0 mg/kg/injection, schedule: Q04DX003 (ip), vehicle: saline with Tween-80
[3] = dose: 400.0 mg/kg/injection, schedule: Q04DX003 (ip), vehicle: saline with Tween-80
[4] = dose: 100.0 mg/kg/injection, schedule: Q04DX003 (ip), vehicle: Klucel (hydroxypropylcellulose) (HPC)
[5] = dose: 200.0 mg/kg/injection, schedule: Q04DX003 (ip), vehicle: Klucel (hydroxypropylcellulose) (HPC)
[6] = dose: 100.0 mg/kg/injection, schedule: Q04DX003 (ip), vehicle: saline
[7] = dose: 200.0 mg/kg/injection, schedule: Q04DX003 (ip), vehicle: saline
[8] = dose: 400.0 mg/kg/injection, schedule: Q04DX003 (ip), vehicle: saline
[9] = dose: 75.0 mg/kg/injection, schedule: Q01DX001 (ip), vehicle: other
[10] = dose: 100.0 mg/kg/injection, schedule: Q01DX001 (ip), vehicle: saline
[11] = dose: 200.0 mg/kg/injection, schedule: Q01DX001 (ip), vehicle: saline
[12] = dose: 400.0 mg/kg/injection, schedule: Q01DX001 (ip), vehicle: saline
[13] = dose: 100.0 mg/kg/injection, schedule: Q01DX009 (ip), vehicle: saline with Tween-80
[14] = dose: 200.0 mg/kg/injection, schedule: Q01DX009 (ip), vehicle: saline with Tween-80
[15] = dose: 400.0 mg/kg/injection, schedule: Q01DX009 (ip), vehicle: saline with Tween-80
[16] = dose: 400.0 mg/kg/injection, schedule: Q04DX003 (ip), vehicle: Klucel (hydroxypropylcellulose) (HPC)
[17] = dose: 50.0 mg/kg/injection, schedule: Q01DX009 (ip), vehicle: saline
[18] = dose: 100.0 mg/kg/injection, schedule: Q01DX009 (ip), vehicle: saline
[19] = dose: 100.0 mg/kg/injection, schedule: Q04DX002 (ip), vehicle: Klucel (hydroxypropylcellulose) (HPC)
[20] = dose: 200.0 mg/kg/injection, schedule: Q04DX002 (ip), vehicle: Klucel (hydroxypropylcellulose) (HPC)
[21] = dose: 400.0 mg/kg/injection, schedule: Q04DX002 (ip), vehicle: Klucel (hydroxypropylcellulose) (HPC)
[22] = dose: 100.0 mg/kg/injection, schedule: Q01DX009 (ip), vehicle: Klucel (hydroxypropylcellulose) (HPC)

Measured: T/C

CCOC(=O)c1cc(N(CCOS(C)(=O)=O)CCOS(C)(=O)=O)ccc1N
inactive: dose: 1.8 mg/kg/injection, schedule: Q01DX015 (ip), vehicle: saline 95 % of control | dose: 2.0 mg/kg/injection, schedule: Q01DX015 (ip), vehicle: saline 89 % of control | dose: 3.0 mg/kg/injection, schedule: Q01DX015 (ip), vehicle: saline 106 % of control | dose: 5.0 mg/kg/injection, schedule: Q01DX001 (ip), vehicle: saline 116 % of control | dose: 7.0 mg/kg/injection, schedule: Q01DX015 (ip), vehicle: saline 90 % of control

O=C(O)Cc1ccc(Br)cc1
inactive: [1] 93 % of control | [2] 96 % of control | [3] 102 % of control

O=[N+]([O-])c1ccc(C(Br)Br)cc1
inactive: [4] 93 % of control | [5] 93 % of control

O=C1CCC(N2C(=O)C3C4C=CC(CC4)C3C2=O)C(=O)N1 (centres undefined)
inactive: [6] 97 % of control | [7] 102 % of control | [8] 90 % of control

Cc1ccc(S(=O)(=O)C2=CC(=O)c3ccccc3C2=O)cc1
inactive: [9] 88 % of control

CCOC(=O)/C(O)=C\c1cc(Br)c(OC)cc1[N+](=O)[O-]
inactive: [10] 102 % of control | [6] 98 % of control | [11] 107 % of control | [7] 98 % of control | [12] 95 % of control | [8] 95 % of control

Cc1ccccc1NC(=O)c1ccc([N+](=O)[O-])cc1
inactive: [13] 106 % of control | [1] 98 % of control | [14] 101 % of control | [2] 94 % of control | [15] 101 % of control | [3] 98 % of control

CN1C(=O)CC(C(=O)CBr)(c2ccccc2)C1=O (centres undefined)
inactive: dose: 25.0 mg/kg/injection, schedule: Q04DX003 (ip), vehicle: saline with Tween-80 109 % of control | dose: 50.0 mg/kg/injection, schedule: Q04DX003 (ip), vehicle: saline with Tween-80 101 % of control

Cc1ccc(NC(=O)OC/C=C/c2ccccc2)c([N+](=O)[O-])c1
inactive: [4] 90 % of control | [5] 93 % of control | [16] 93 % of control

Cc1ccc(NC(=S)NCCO)cc1
inactive: [1] 100 % of control | [2] 102 % of control | [3] 97 % of control

O=C(Nc1ccc(Cl)cc1)OCCN(CCOC(=O)Nc1ccc(Cl)cc1)Cc1ccccc1
inactive: [10] 101 % of control | [11] 95 % of control | [12] 95 % of control

O=C1OCC/C1=C1/CCOC1
inactive: [17] 91 % of control | [18] 102 % of control

CCCC(C)NNC(C)CCC (centres undefined)
inactive: dose: 75.0 mg/kg/injection, schedule: Q01DX001 (ip), vehicle: acetone 96 % of control | [9] 114 % of control | dose: 150.0 mg/kg/injection, schedule: Q01DX001 (ip), vehicle: acetone 101 % of control

COC(=O)C1C(O)C(C)C(=O)C(C)/C=C\C=C(C)C(=O)Nc2c(C)c(OC(C)=O)c3c(c2O)C(=O)C(C)=C2OCOC(=C23)C(C)=CC(C)(O)C(O)C(C)C1O (centres undefined)
inactive: dose: 25.0 mg/kg/injection, schedule: Q01DX009 (ip), vehicle: saline 96 % of control | [17] 98 % of control | [18] 96 % of control | dose: 200.0 mg/kg/injection, schedule: Q01DX009 (ip), vehicle: saline 98 % of control

CN(C)c1ccc(/C=N/NC(=O)C(O)(c2ccccc2)c2ccccc2)cc1
inactive: [13] 98 % of control | [14] 98 % of control | [15] 88 % of control

ON=C1c2ccccc2-c2ccccc21
inactive: [19] 96 % of control | [20] 93 % of control | [21] 104 % of control

COc1cccc(CNc2ccc(SC)cc2)c1OC
inactive: [22] 97 % of control | [4] 94 % of control | dose: 200.0 mg/kg/injection, schedule: Q01DX009 (ip), vehicle: Klucel (hydroxypropylcellulose) (HPC) 105 % of control | [5] 91 % of control | dose: 400.0 mg/kg/injection, schedule: Q01DX009 (ip), vehicle: Klucel (hydroxypropylcellulose) (HPC) 94 % of control | [16] 91 % of control

c1ccc([P+](c2ccccc2)(c2ccccc2)C2CCC2)cc1
inactive: dose: 9.4 mg/kg/injection, schedule: Q01DX009 (ip), vehicle: saline with Tween-80 121 % of control | dose: 18.8 mg/kg/injection, schedule: Q01DX009 (ip), vehicle: saline with Tween-80 88 % of control

CCCCOC(=O)Nc1ccccc1OCC
inactive: [19] 109 % of control | [20] 106 % of control | [21] 98 % of control

CC(C)=CCCC(O)C1CCC2C3CCC4CCCCC4(C)C3CCC12C (centres undefined)
inactive: dose: 100.0 mg/kg/injection, schedule: Q04DX002 (ip), vehicle: DMSO 96 % of control | dose: 200.0 mg/kg/injection, schedule: Q04DX002 (ip), vehicle: DMSO 96 % of control | dose: 400.0 mg/kg/injection, schedule: Q04DX002 (ip), vehicle: DMSO 92 % of control

C1CCC2[N-]CC3CCCCC3[N-]CC3CCCCC3[N-]CC3CCCCC3[N-]CC2C1.CO.[Co+3] (centres undefined)
inactive: [19] 110 % of control | [20] 103 % of control

CC/C(=N/Nc1ccc([N+](=O)[O-])cc1[N+](=O)[O-])c1ccccc1
inactive: dose: 100.0 mg/kg/injection, schedule: Q01DX001 (ip), vehicle: other 96 % of control | dose: 200.0 mg/kg/injection, schedule: Q01DX001 (ip), vehicle: other 111 % of control | dose: 400.0 mg/kg/injection, schedule: Q01DX001 (ip), vehicle: other 91 % of control

CCCCNC(=O)Nc1ccc(N(CC)CC)cc1
inactive: [13] 101 % of control | [1] 94 % of control | [14] 88 % of control | [2] 97 % of control | [15] 90 % of control | [3] 100 % of control

C1Cc2c3c4c(c5c2C(C1)CCC5)CCCC4CCC3
inactive: [10] 97 % of control | [11] 94 % of control | [12] 91 % of control

COC(=O)c1cc(Cl)ccc1OCC(=O)O
inactive: dose: 100.0 mg/kg/injection, schedule: Q01DX001 (ip), vehicle: Klucel (hydroxypropylcellulose) (HPC) 90 % of control | [4] 102 % of control | dose: 200.0 mg/kg/injection, schedule: Q01DX001 (ip), vehicle: Klucel (hydroxypropylcellulose) (HPC) 93 % of control | [5] 101 % of control | dose: 400.0 mg/kg/injection, schedule: Q01DX001 (ip), vehicle: Klucel (hydroxypropylcellulose) (HPC) 90 % of control | [16] 107 % of control

CN1C(=O)CSC1=S
inactive: dose: 25.0 mg/kg/injection, schedule: Q01DX009 (ip), vehicle: Klucel (hydroxypropylcellulose) (HPC) 90 % of control | dose: 50.0 mg/kg/injection, schedule: Q01DX009 (ip), vehicle: Klucel (hydroxypropylcellulose) (HPC) 87 % of control | [22] 93 % of control

— PubChem BioAssay AID248 (DTP/NCI, 2004)
